Test results taken from patent US20240109917A1 (ACTELION PHARMACEUTICALS LTD, priority 2020, published 2024).

Assays:
[1] = target: Tb-labeled inactive PDGFRβ (Homo sapiens (Human), UniProt P09619); experiment: PDGFRβ LanthaScreen Assay; format: binding; details: read-out: PDGFR Lantha IC50
PDGFRβ = PDGFRβ (Rattus norvegicus (Rat), UniProt Q05030); experiment: PDGFRβ Cellular Assay (PDGFRb P-Y751 HTRF in A10 cells stimulated with PDGF-BB); format: cell-based; details: read-out: PDGFR Cellular IC50
PDGFRβ, sequence (Q05030 32-1097): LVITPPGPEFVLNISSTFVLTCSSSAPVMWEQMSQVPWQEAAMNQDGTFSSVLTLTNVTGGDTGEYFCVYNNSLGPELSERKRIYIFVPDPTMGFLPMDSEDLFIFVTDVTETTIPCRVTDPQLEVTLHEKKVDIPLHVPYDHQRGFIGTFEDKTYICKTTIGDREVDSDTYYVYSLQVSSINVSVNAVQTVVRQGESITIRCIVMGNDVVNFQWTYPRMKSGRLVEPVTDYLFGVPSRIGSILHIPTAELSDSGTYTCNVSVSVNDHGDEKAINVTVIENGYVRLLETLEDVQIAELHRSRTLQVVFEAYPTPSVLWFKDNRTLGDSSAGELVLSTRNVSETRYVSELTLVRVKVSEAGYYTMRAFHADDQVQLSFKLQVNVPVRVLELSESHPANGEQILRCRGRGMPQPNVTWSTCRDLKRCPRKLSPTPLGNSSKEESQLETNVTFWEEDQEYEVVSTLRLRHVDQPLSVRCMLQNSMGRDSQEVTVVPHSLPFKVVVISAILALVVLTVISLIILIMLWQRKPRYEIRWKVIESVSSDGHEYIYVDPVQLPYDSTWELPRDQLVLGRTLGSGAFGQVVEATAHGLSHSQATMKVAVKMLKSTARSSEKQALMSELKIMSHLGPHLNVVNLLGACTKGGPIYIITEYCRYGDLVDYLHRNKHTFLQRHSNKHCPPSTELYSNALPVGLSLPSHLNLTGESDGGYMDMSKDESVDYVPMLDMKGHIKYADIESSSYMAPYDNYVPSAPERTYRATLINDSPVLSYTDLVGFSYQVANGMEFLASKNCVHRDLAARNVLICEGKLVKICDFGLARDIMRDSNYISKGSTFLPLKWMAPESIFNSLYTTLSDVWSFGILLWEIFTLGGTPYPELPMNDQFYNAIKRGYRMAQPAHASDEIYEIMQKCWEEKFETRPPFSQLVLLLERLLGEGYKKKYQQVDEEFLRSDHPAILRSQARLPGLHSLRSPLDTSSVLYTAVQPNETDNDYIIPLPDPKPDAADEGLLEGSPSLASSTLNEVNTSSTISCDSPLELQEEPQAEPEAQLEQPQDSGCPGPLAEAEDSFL
In short: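 Phospho-Y751 PDGFRβ was measured by HTRF in lysates of A10 rat cells. Cells received compound for 3 hours before PDGF-BB stimulation (100 ng/mL working stock).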

VEGFR2, unphosphorylated = VEGFR2, unphosphorylated (Homo sapiens (Human), UniProt P35968); experiment: VEGFR ADP GLO Assay; format: biochemical
VEGFR2, unphosphorylated, sequence (P35968 20-1356): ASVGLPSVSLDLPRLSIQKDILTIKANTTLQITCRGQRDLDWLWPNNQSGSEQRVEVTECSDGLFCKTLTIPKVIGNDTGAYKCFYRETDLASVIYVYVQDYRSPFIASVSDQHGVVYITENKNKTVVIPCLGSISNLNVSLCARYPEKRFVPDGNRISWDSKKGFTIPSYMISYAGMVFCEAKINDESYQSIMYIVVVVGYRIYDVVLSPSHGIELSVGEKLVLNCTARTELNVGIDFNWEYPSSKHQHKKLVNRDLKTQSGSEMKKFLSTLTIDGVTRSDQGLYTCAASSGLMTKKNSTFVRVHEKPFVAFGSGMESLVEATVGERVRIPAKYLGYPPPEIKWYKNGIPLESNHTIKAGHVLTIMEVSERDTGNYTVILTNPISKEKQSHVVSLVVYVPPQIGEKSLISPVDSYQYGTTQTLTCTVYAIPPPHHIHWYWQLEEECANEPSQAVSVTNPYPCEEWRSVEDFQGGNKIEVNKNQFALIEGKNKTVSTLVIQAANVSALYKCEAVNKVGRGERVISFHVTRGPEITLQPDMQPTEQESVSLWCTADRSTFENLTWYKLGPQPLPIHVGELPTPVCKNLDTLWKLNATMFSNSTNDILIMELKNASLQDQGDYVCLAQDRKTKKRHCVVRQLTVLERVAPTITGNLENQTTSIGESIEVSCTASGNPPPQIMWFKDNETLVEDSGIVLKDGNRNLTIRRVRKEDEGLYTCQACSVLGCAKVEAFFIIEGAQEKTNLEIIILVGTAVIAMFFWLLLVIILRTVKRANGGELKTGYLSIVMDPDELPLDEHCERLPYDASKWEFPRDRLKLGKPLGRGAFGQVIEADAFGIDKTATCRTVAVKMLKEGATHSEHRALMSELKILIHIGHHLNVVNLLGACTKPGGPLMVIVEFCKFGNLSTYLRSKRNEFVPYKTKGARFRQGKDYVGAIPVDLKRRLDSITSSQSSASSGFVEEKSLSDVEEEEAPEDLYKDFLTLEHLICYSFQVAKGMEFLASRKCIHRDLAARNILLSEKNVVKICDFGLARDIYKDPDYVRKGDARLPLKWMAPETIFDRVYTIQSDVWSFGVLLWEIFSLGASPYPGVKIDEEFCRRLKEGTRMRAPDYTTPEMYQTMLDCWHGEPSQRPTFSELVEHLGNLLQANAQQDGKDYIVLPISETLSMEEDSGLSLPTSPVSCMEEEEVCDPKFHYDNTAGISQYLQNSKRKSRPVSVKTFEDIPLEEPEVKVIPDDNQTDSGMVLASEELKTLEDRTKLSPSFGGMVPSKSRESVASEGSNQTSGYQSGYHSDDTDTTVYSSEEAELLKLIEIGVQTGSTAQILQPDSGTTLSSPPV

Tb-labeled inactive PDGFRβ, sequence (P09619 33-1106): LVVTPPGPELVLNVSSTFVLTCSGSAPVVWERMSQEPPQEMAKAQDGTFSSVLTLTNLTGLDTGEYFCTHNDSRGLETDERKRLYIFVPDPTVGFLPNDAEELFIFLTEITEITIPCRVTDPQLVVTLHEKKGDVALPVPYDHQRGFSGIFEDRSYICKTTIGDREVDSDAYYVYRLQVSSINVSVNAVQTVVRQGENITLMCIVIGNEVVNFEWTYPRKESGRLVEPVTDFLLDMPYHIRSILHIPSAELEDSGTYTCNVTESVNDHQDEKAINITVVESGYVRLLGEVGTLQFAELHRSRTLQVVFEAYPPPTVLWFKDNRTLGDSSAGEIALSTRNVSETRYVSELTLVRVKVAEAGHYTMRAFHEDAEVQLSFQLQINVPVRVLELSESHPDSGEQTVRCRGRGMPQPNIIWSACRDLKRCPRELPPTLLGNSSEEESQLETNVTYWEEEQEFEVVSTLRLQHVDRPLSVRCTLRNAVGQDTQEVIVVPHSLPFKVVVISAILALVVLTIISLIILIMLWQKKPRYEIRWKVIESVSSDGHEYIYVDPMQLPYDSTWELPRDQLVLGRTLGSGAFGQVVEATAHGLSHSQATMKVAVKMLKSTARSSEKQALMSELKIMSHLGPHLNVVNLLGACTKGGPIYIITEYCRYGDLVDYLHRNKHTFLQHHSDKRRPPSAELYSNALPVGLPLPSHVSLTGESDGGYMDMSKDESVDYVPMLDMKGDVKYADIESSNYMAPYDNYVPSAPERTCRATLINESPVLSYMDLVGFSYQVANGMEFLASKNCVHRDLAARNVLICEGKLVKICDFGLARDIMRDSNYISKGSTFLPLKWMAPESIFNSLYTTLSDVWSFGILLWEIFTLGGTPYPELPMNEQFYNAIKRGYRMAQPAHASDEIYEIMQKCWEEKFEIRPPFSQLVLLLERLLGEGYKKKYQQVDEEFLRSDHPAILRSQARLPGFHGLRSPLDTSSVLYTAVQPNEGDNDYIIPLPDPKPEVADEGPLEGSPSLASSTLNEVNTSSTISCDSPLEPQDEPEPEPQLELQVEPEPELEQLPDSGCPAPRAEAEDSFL

SMILES | IC50 [1] [nM] | IC50 (PDGFRβ) [nM] | IC50 (VEGFR2, unphosphorylated) [nM]
Cc1ncc(NC(=O)CN2CCCC2(C)C)cc1NC(=O)c1cnn2cc(-c3cccn(CCF)c3=O)sc12 [Example 449, N-(5-(2-(2,2-dimethylpyrrolidin-1-yl)acetamido)-2-methylpyridin-3-yl)-2-(1-(2-fluoroethyl)-2-oxo-1,2-dihydropyridin-3-yl)pyrazolo[5,1-b]thiazole-7-carboxamide] | 9.1 | 10.6 | > 7500
Cc1ncc(NC(=O)CC2CN(C)C2)cc1NC(=O)c1cnn2cc(-c3cnn4c3CCC4)sc12 [Example 427, 2-(5,6-dihydro-4H-pyrrolo[1,2-b]pyrazol-3-yl)-N-(2-methyl-5-(2-(1-methylazetidin-3-yl)acetamido)pyridin-3-yl)pyrazolo[5,1-b]thiazole-7-carboxamide] | 150 | > 2000 | > 7500
Cc1ncc(NC(=O)NCCN2CCCC2(C)C)cc1NC(=O)c1cnn2cc(-c3cnn(C)c3)sc12 [Example 38, N-(5-(3-(2-(2,2-dimethylpyrrolidin-1-yl)ethyl)ureido)-2-methyl-pyridin-3-yl)-2-(1-methyl-1H-pyrazol-4-yl)pyrazolo[5,1-b]thiazole-7-carboxamide] | 33.5 | 3000 | > 7500
Cc1ncc(NC(=O)CN2CCC[C@@H]2C)cc1NC(=O)c1cnn2cc(-c3cnn4c3CCC4)sc12 [Example 416, (S)-2-(5,6-dihydro-4H-pyrrolo[1,2-b]pyrazol-3-yl)-N-(2-methyl-5-(2-(2-methylpyrrolidin-1-yl)acetamido)pyridin-3-yl)pyrazolo[5,1-b]thiazole-7-carboxamide] | 1.6 | 2.3 | > 7500
COCCn1cc(-c2cn3ncc(C(=O)Nc4cc(NC(=O)CN5CCC5C(C)C)cnc4C)c3s2)cn1 (stereo not drawn) [Example 467, N-(5-(2-(2-isopropylazetidin-1-yl)acetamido)-2-methylpyridin-3-yl)-2-(1-(2-methoxyethyl)-1H-pyrazol-4-yl)pyrazolo[5,1-b]thiazole-7-carboxamide] | 3 | 4.4 | > 7500
Cc1ncc(NC(=O)CN2CCC3(CC3)C2)cc1NC(=O)c1cnn2cc(-c3cnn4c3COCC4)sc12 [Example 474, N-(5-(2-(5-azaspiro[2.4]heptan-5-yl)acetamido)-2-methylpyridin-3-yl)-2-(6,7-dihydro-4H-pyrazolo[5,1-c][1,4]oxazin-3-yl)pyrazolo[5,1-b]thiazole-7-carboxamide] | 1.7 | 3.9 | > 7500
Cc1ncc(NC(=O)CN2CCC[C@@H]2C)cc1NC(=O)c1cnn2cc(-c3cnn4c3COCC4)sc12 [Example 473, (S)-2-(6,7-dihydro-4H-pyrazolo[5,1-c][1,4]oxazin-3-yl)-N-(2-methyl-5-(2-(2-methylpyrrolidin-1-yl)acetamido)pyridin-3-yl)pyrazolo[5,1-b]thiazole-7-carboxamide] | 4.8 | 5.3 | > 7500
Cc1ncc(NC(=O)CN2CC(C)(C)C2)cc1NC(=O)c1cnn2cc(-c3cnn4c3OCCC4)sc12 [Example 39, 2-(6,7-dihydro-5H-pyrazolo[5,1-b][1,3]oxazin-3-yl)-N-(5-(2-(3,3-dimethylazetidin-1-yl)acetamido)-2-methylpyridin-3-yl)pyrazolo[5,1-b]thiazole-7-carboxamide] | 1.9 | 2 | 2040
Cc1ncc(C(=O)NCCN2CC(C)(C)C2)cc1NC(=O)c1cnn2cc(-c3cnn4c3OCCC4)sc12 [Example 479, 2-(6,7-dihydro-5H-pyrazolo[5,1-b][1,3]oxazin-3-yl)-N-(5-((2-(3,3-dimethylazetidin-1-yl)ethyl)carbamoyl)-2-methylpyridin-3-yl)pyrazolo[5,1-b]thiazole-7-carboxamide] | 2 | 97.1 | > 7500
Cc1ncc(NC(=O)CN2CC(C)(C)C2)cc1NC(=O)c1cnn2cc(-c3cnn4c3COCC4)sc12 [Example 476, 2-(6,7-dihydro-4H-pyrazolo[5,1-c][1,4]oxazin-3-yl)-N-(5-(2-(3,3-dimethylazetidin-1-yl)acetamido)-2-methylpyridin-3-yl)pyrazolo[5,1-b]thiazole-7-carboxamide] | 1.7 | 4.9 | > 7500
Cc1ncc(NC(=O)CN2CC(C)(C)C2)cc1NC(=O)c1cnn2cc(-c3nn(C)nc3C)sc12 [Example 445, 2-(2,5-Dimethyl-2H-1,2,3-triazol-4-yl)-N-(5-(2-(3,3-dimethylazetidin-1-yl)acetamido)-2-methylpyridin-3-yl)pyrazolo[5,1-b]thiazole-7-carboxamide] | 2.1 | 2.2 | > 7500
Cc1ncc(C(=O)NCCN2CC3CCC2CC3)cc1NC(=O)c1cnn2cc(-c3cnn4c3OCCC4)sc12 [Example 477, N-(5-((2-(2-azabicyclo[2.2.2]octan-2-yl)ethyl)carbamoyl)-2-methylpyridin-3-yl)-2-(6,7-dihydro-5H-pyrazolo[5,1-b][1,3]oxazin-3-yl)pyrazolo[5,1-b]thiazole-7-carboxamide] | 2.3 | 45.5 | > 7500
Cc1ncc(NC(=O)CNCC2CC2)cc1NC(=O)c1cnn2cc(-c3cnn4c3OCCC4)sc12 [Example 453, N-(5-(2-((cyclopropylmethyl)amino)acetamido)-2-methylpyridin-3-yl)-2-(6,7-dihydro-5H-pyrazolo[5,1-b][1,3]oxazin-3-yl)pyrazolo[5,1-b]thiazole-7-carboxamide] | 5.8 | 25.1 | > 7500
COCCn1cc(-c2cn3ncc(C(=O)Nc4cc(NC(=O)C[C@@H]5CCN(C(C)C)C5)cnc4C)c3s2)cn1 [Example 466, (S)—N-(5-(2-(1-isopropylpyrrolidin-3-yl)acetamido)-2-methylpyridin-3-yl)-2-(1-(2-methoxyethyl)-1H-pyrazol-4-yl)pyrazolo[5,1-b]thiazole-7-carboxamide] | 261 | 350 | > 7500
COC1CN(CC(=O)Nc2cnc(C)c(NC(=O)c3cnn4cc(-c5cn(C)nc5C)sc34)c2)C1 [Example 441, 2-(1,3-Dimethyl-1H-pyrazol-4-yl)-N-(5-(2-(3-methoxyazetidin-1-yl)acetamido)-2-methylpyridin-3-yl)pyrazolo[5,1-b]thiazole-7-carboxamide] | 19.7 | 30.5 | > 7500
Cc1ncc(NC(=O)C[C@@H]2CCN(C(C)C)C2)cc1NC(=O)c1cnn2cc(-c3cnn(C)c3)sc12 [Example 464, (S)—N-(5-(2-(1-isopropylpyrrolidin-3-yl)acetamido)-2-methylpyridin-3-yl)-2-(1-methyl-1H-pyrazol-4-yl)pyrazolo[5,1-b]thiazole-7-carboxamide] | 145 | 2000 | > 7500
Cc1ncc(C(=O)NCCN2CCCC23CCC3)cc1NC(=O)c1cnn2cc(-c3cnn4c3COCC4)sc12 [Example 472, N-(5-((2-(5-azaspiro[3.4]octan-5-yl)ethyl)carbamoyl)-2-methylpyridin-3-yl)-2-(6,7-dihydro-4H-pyrazolo[5,1-c][1,4]oxazin-3-yl)pyrazolo[5,1-b]thiazole-7-carboxamide] | 2.8 | 5.4 | > 7500
